IC50 data for twelve compounds are collected here from patent US6531612B2, “Nitrile derivatives that inhibit cathepsin K” (Hoffman-La Roche Inc., priority 1999, dated 2003).

By IC50 is commonly meant the concentration that gives 50% inhibition.

Common to all, as to assay type: biochemical
Experiment [1] concerns the target T1, human recombinant cathepsin K (Homo sapiens, UniProt P43235).
T1 sequence (P43235 115-329): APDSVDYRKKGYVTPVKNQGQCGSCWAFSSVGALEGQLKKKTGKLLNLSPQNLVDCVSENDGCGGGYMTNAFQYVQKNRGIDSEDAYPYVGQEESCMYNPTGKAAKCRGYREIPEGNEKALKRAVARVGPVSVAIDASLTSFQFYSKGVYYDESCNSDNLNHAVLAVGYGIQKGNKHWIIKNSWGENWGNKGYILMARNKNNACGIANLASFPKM
The experiment in a line: cathepsin K inhibitory activity (fluorogenic substrate Z-Leu-Arg-MCA). Particulars: room temperature, enzyme 1 nM, substrate 5 μM, pH 5.5. As for the experimental part: (§1) The inhibitory activity of the compounds against cathepsin K, S, L and B was tested at room temperature in 96-wells opaque white polystyrene plates (Costar). The cathepsin K inhibitory activity was tested as follows:
(§2) 5 μl of an inhibitor diluted in 5 mM sodium phosphate, NaCl 15 mM pH 7.4 containing 1% DMSO (final concentrations: 10−0.0001 μM) were preincubated for 10 min with 35 μl of human recombinant cathepsin K (final concentration: 1 nM) diluted in assay buffer (100 mM sodium acetate pH 5.5 containing 5 mM EDTA and 20 mM cysteine). After addition of 10 μl of the fluorogenic substrate Z-Leu-Arg-MCA diluted in assay buffer (final concentration: 5 μM), increase of fluorescence (excitation at 390 nm and emission at 460 nm) was measured for 7.5 min every 45 sec. The initial velocity (RFU/min) was derived from the linear fit of the 11 reading points.
(§3) The results are given as IC50 values which denote the concentration of the inhibitor at which the enzymatic activity is inhibited by 50%. The IC50 values are determined from a linear regression curve from a logit-log plot.

Experiment [2] has as its target Human recombinant cathepsin S (Homo sapiens, UniProt P25774). The experiment in a line: cathepsin S inhibitory activity (fluorogenic substrate Z-Val-Val-Arg-MCA). Particulars: room temperature, enzyme 0.5 nM, substrate 20 μM, pH 6.5. How it is done:
as §1, §2
Cathepsin S inhibitory activity was assayed analogeously to the cathepsin K inhibitory activity, except that the buffer was 100 mM potassium phosphate, 5 mM EDTA, 5 mM DTT (freshly added), 0.01% Triton X-100, pH 6.5 and the fluorogenic substrate was Z-Val-Val-Arg-MCA (Bachem) (final concentration: 20 μM). Human recombinant cathepsin S (Wiederanders et al., Eur. J. Biochem. 1997, 250, 745-750) was used at a final concentration of 0.5 nM.
as §3

Experiment [3] concerns the target T2, human liver cathepsin L (Homo sapiens, UniProt P07711).
T2 construct: using human liver cathepsin L (Calbiochem) at a final concentration of 3 nM; purchased Calbiochem; host or cells: human liver (tissue-derived)
In words: cathepsin L inhibitory activity. Particulars: room temperature, enzyme 3 nM, substrate 5 μM, pH 5.5. How it is done:
as §1, §2
The cathepsin L inhibitory activity was assayed under the same conditions as the cathepsin K inhibitory activity using human liver cathepsin L (Calbiochem) at a final concentration of 3 nM.
as §3

Experiment [4] has as its target T3, human liver cathepsin B (Homo sapiens, UniProt P07858).
T3 construct: using human liver cathepsin B (Calbiochem) at a final concentration of 1 nM; purchased Calbiochem; host or cells: human liver (tissue-derived)
The experiment in a line: cathepsin B inhibitory activity. Particulars: room temperature, enzyme 1 nM, substrate 5 μM, pH 5.5. As for the experimental part: as §1, §2
The cathepsin B inhibitory activity was assayed under the same conditions as the cathepsin K inhibitory activity using human liver cathepsin B (Calbiochem) at a final concentration of 1 nM.
as §3

Sequence of Human recombinant cathepsin S (P25774 115-331): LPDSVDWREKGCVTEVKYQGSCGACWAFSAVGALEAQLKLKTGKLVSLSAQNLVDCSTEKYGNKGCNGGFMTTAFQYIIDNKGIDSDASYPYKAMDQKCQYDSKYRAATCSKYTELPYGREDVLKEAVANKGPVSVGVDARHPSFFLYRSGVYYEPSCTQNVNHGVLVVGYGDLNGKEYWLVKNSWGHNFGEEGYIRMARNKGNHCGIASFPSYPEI
T2 sequence (P07711 114-333): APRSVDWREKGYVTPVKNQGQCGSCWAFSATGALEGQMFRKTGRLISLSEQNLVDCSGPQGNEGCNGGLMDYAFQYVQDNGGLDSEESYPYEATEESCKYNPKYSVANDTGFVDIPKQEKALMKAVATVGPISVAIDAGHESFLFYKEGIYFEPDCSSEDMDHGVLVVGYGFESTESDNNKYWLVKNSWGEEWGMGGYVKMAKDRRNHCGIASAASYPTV

On to `N#CC(NC(=O)[C@@H]1CCCN1C(=O)OCc1ccccc1)c1ccc2c(c1)OCO2` (mixture of isomers) [10.9, (S)-2-[(R)- and (S)-(Benzo[l,3]dioxol-5-yl-cyano-methyl)-carbamoyl]-pyrrolidine-1-carboxylic acid benzyl ester], for which the IC50 in experiment [1] is 14 nM; in experiment [2] it was more than 10000 nM; in experiment [3] it was more than 10000 nM; in experiment [4] it was 9500 nM.

Consider `COc1ccc(C(C#N)NC(=O)[C@@H]2[C@H](C)CCN2C(=O)OCc2ccccc2)cc1OC` (mixture of isomers) [10.11, (2S,3R)-2-{(R)- and (S)-[Cyano-(3,4-dimethoxy-phenyl)-methyl]-carbamoyl}-3-methyl-pyrrolidine-1-carboxylic acid benzyl ester], for which the IC50 is 68 nM in experiment [1], more than 10000 nM in experiment [2], more than 10000 nM in experiment [3] and 600 nM in experiment [4].

`COc1ccc(C(C#N)NC(=O)[C@@H]2CCCN2C(=S)NCc2ccco2)cc1OC` (mixture of isomers) [10.14, (S)-1-[(Furan-2-ylmethyl)-thiocarbamoyl]-pyrrolidine-2-carboxylic acid [(R)- and (S)-cyano-(3,4-dimethoxy-phenyl)-methyl]-amide]: the IC50 in experiment [1] is 64 nM; in experiment [2] it was more than 10000 nM; in experiment [3], more than 10000 nM; in experiment [4], 6200 nM.

For `Cc1ccccc1C(C#N)NC(=O)[C@@H]1CCCN1C(=O)OCc1ccccc1` (mixture of isomers) [10.20, (S)-2-[(R)- and (S)-(Cyano-o-tolyl-methyl)-carbamoyl]-pyrrolidine-1-carboxylic acid benzyl ester], the IC50 in experiment [1] was 26 nM; in experiment [2], more than 10000 nM; in experiment [3] it was more than 10000 nM; in experiment [4], more than 10000 nM.

Regarding `N#CC(NC(=O)[C@@H]1CCCN1C(=O)OCc1ccccc1)c1cccc(Br)c1` (mixture of isomers) [10.22, (S)-2-{(R)- and (S)-[(3-Bromo-phenyl)-cyano-methyl]-carbamoyl}-pyrrolidine-1-carboxylic acid benzyl ester], the IC50 was 16 nM in experiment [1], more than 10000 nM in experiment [2], more than 10000 nM in experiment [3] and more than 10000 nM in experiment [4].

As to `COc1cc(C(C#N)NC(=O)[C@@H]2CCCN2C(=O)OCc2ccccc2)ccc1OCc1ccccc1` (mixture of isomers) [10.28, (S)-2-{(R)- and (S)-[(4-Benzyloxy-3-methoxy-phenyl)-cyano-methyl]-carbamoyl}-pyrrolidine-1-carboxylic acid benzyl ester], the IC50 in experiment [1] is 45 nM; in experiment [2], more than 10000 nM; in experiment [3], more than 10000 nM; in experiment [4], more than 10000 nM.

Take `N#CC(NC(=O)[C@@H]1CCCN1C(=O)CCC1CCCC1)c1ccc2c(c1)OCO2` (mixture of isomers) [10.32, (S)-1-(3-Cyclopentyl-propionyl)-pyrrolidine-2-carboxylic acid ((R)- and (S)-benzo[l,3]dioxol-5-yl-cyano-methyl)-amide]: the IC50 in experiment [1] is 37 nM; in experiment [2] it was more than 10000 nM; in experiment [3], more than 10000 nM; in experiment [4] it was 600 nM.

With `N#CC(NC(=O)[C@@H]1CCCN1C(=O)COCc1ccccc1)c1ccc2c(c1)OCO2` (mixture of isomers) [10.33, (S)-1-Benzyloxyacetyl-pyrrolidine-2-carboxylic acid ((R)- and (S)-benzo[1,3]dioxol-5-yl-cyano-methyl)-amide], the half-inhibitory concentration (IC50) is 27 nM in experiment [1], more than 10000 nM in experiment [2], more than 10000 nM in experiment [3] and 2000 nM in experiment [4].

For `N#C[C@H](NC(=O)[C@@H]1CCCN1C(=O)OCc1ccccc1)c1ccccc1` [10.2, (S)-2-[(R)-(Cyano-phenyl-methyl)-carbamoyl]-pyrrolidine-1-carboxylic acid benzyl ester], the IC50 in experiment [1] was 46 nM; in experiment [2], more than 10000 nM; in experiment [3] it was more than 10000 nM; in experiment [4] it was 2800 nM.

Regarding `N#CC(NC(=O)[C@@H]1CCCN1C(=O)Cc1cccc(Br)c1)c1ccc2c(c1)OCO2` (stereo partly drawn) [11.1, (S)-1-[2-(3-Bromo-phenyl)-ethanoyl]-pyrrolidine-2-carboxylic acid (1-benzo[1,3]dioxol-5-yl-1-cyano-methyl)-amide], the IC50 in experiment [1] was 15 nM; in experiment [2], more than 10000 nM; in experiment [3], 7000 nM; in experiment [4], 2000 nM.

In the case of `COc1ccc(C(C#N)NC(=O)[C@@H]2CCCN2C(=O)Cc2cccc(Br)c2)cc1OC` (stereo partly drawn) [11.2, (S)-1-[2-(3-Bromo-phenyl)-ethanoyl]-pyrrolidine-2-carboxylic acid [1-cyano-1-(3,4-dimethoxy-phenyl)-methyl]-amide], the IC50 was 18 nM in experiment [1], more than 10000 nM in experiment [2], more than 10000 nM in experiment [3] and 600 nM in experiment [4].

As for `N#CC(NC(=O)[C@@H]1CCCN1C(=O)Cc1ccc(Br)cc1)c1ccc2c(c1)OCO2` (stereo partly drawn) [11.10, (S)-1-[2-(4-Bromo-phenyl)-ethanoyl]-pyrrolidine-2-carboxylic acid (1-benzo[1,3]dioxol-5-yl-1-cyano-methyl)-amide], the IC50 is 26 nM in experiment [1], more than 10000 nM in experiment [2], more than 10000 nM in experiment [3] and 4000 nM in experiment [4].
